# Experimental data: patent US7825264B2, “Substituted heterocycles, their use as medicament, and pharmaceutical preparations comprising them” (sanofi-aventis, priority 2005, dated 2010)
# pIC50: −log10 of the molar value.
# Target: T1, Human Kv1.5 channels (Homo sapiens, UniProt P22460)
# T1 construct: expressed in transfected cells; host or cells: Xenopus laevis oocytes injected with RNA synthesized in vitro
# Assay: Activity on the Kv1.5 channel: two-microelectrode voltage clamp on Xenopus oocytes expressing Kv1.5
# Type: cell-based
# Settings: human Kv1.5 expressed in Xenopus oocytes, room temperature, Hill equation; read-out: Kv1.5 IC-50
# Protocol: Determination of the Activity on the Kv1.5 Channel
# Human Kv1.5 channels were expressed in xenopus oocytes. For this purpose, firstly oocytes were isolated from Xenopus laevis and defolliculated. Kv1.5-encoding RNA synthesized in vitro was then injected into these oocytes. After Kv1.5 protein expression for 1-7 days, Kv1.5 currents were measured on the oocytes using the two-microelectrode voltage clamp technique. The Kv1.5 channels were in this case usually activated with voltage jumps lasting 500 ms to 0 mV and 40 mV. A solution of the following composition flowed through the bath: NaCl 96 mM, KCl 2 mM, CaCl2 1.8 mM, MgCl2 1 mM, HEPES 5 mM (titrated to pH 7.4 with NaOH). These experiments were carried out at room temperature. The following were employed for data acquisition and analysis: Geneclamp amplifier (Axon Instruments, Foster City, USA) and MacLab D/A converter and software (ADInstruments, Castle Hill, Australia). The substances of the invention were tested by adding them in various concentrations to the bath solution. The effects of the substances were calculated as percent inhibition of the Kv1.5 control current which was obtained when no substance was added to the solution. The data were then extrapolated using the Hill equation in order to determine the inhibitory concentrations IC50 for the respective substances.
# T1 sequence (P22460 whole entry): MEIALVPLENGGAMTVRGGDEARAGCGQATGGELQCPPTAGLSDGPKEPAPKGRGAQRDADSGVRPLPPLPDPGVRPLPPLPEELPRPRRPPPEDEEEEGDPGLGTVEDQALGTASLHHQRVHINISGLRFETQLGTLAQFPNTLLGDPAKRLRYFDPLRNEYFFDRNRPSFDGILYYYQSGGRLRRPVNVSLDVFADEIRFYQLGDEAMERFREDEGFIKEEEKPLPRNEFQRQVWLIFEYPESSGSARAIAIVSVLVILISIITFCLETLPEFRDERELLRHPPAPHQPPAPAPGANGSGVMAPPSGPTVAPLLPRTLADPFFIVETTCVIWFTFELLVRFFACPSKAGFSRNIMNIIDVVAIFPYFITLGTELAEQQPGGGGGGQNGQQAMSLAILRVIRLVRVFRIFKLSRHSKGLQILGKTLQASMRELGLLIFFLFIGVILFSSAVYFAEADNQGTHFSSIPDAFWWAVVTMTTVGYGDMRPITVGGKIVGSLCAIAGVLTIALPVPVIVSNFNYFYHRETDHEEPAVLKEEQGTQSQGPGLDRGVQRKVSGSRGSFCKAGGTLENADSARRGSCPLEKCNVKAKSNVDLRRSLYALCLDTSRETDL
row,pIC50,Structure (SMILES)
1,6.10,"C=CO[C@H](c1ccccc1)[C@H](c1ccccc1)N1CCCC1=O [Example 120, 1 S,2R-1-(1,2-Diphenyl-2-vinyloxyethyl)pyrrolidin-2-one]"
2,5.74,O=C1CCCN1[C@@H](c1ccccc1)[C@@H](OCc1ccccc1)c1ccc(F)cc1 (racemic) [Example 53]
3,5.57,CCCO[C@H](c1ccccn1)[C@H](c1ccccc1)N1CCCC1=O (racemic) [Example 76]
4,5.74,CCCO[C@H](c1ccccc1)[C@@H](c1ccccn1)N1CCCC1=O (racemic) [Example 64]
5,5.48,CO[C@H](C1CCCCC1)[C@H](c1ccc(F)cc1)N1CCCC1=O (racemic) [Example 78]
6,5.89,COc1ccc(CO[C@H](c2ccc(Cl)cc2)[C@H](c2ccccc2)N2CCCC2=O)cc1 (racemic) [Example 60]
7,5.28,COc1ccc(CO[C@H](c2ccc(F)cc2)[C@@H](c2ccccc2)N2CCCC2=O)cc1 (racemic) [Example 95]
8,5.39,CC1CCC(=O)N1[C@@H](c1ccc(F)cc1)[C@H](Oc1ccc(C#N)cc1)c1ccc(F)c(F)c1 (mixture of isomers) [Example 90]
9,5.64,O=C1CCCN1[C@@H](c1ccccc1)[C@H](Oc1ccccn1)c1ccccc1 (racemic) [Example 70]
10,6.00,N#Cc1ccc([C@@H](OCC2CC2)[C@H](c2ccc(F)cc2)N2CCCC2=O)cc1 (racemic) [Example 41]
11,5.85,O=C1CCCN1[C@@H](c1ccc(F)cc1)[C@@H](OCC1CC1)c1cccc2cccnc12 (racemic) [Example 75]
12,6.05,C[C@](c1ccccc1)([C@H](OCC1CC1)c1ccccc1)N1CCCC1=O (racemic) [Example 29]
13,6.10,O=C1CCCN1[C@@H](c1ccccc1)[C@H](OCc1cccc(Cl)c1)c1ccc(Cl)cc1 (racemic) [Example 40]
14,5.62,O=C1CCCN1[C@@H](c1ccc(F)cc1)[C@@H](OCC1CC1)c1ccnc2ccccc12 (racemic) [Example 84]
15,6.52,CCCO[C@H](c1ccccc1)[C@@H](c1ccccc1)N1CCCC1=O (racemic) [Example 19]
16,~5.00,N#Cc1ccc(O[C@H](c2ccc(C(F)(F)F)cc2)[C@H](c2ccc(F)cc2)N2CCCC2=O)cc1 (racemic) [Example 116]
17,5.49,COc1ccc(CO[C@H](c2ccc(F)c(F)c2)[C@H](c2cccnc2)N2CCCC2=O)cc1 (racemic) [Example 81]
18,5.85,O=C1CCCN1[C@H](c1ccc(F)cc1)[C@H](OCCCC(F)(F)F)c1ccc(F)cc1 (racemic) [Example 43]
19,5.68,O=C1CCCN1[C@@H](c1ccccc1)[C@H](OCc1ccccc1)c1ccc(Cl)cc1 (racemic) [Example 72]
20,6.19,O=C1CCCN1[C@@H](c1ccc(F)cc1)[C@H](OCCCC(F)(F)F)C1CCCCC1 (racemic) [Example 24]

row,pIC50,Structure (SMILES)
1,6.00,O=C1CCCN1[C@@H](c1ccc(F)cc1)[C@H](OCC1CC1)c1cccnc1 (racemic) [Example 58]
2,6.10,CCCCO[C@H](c1ccc(Cl)cc1)[C@H](c1ccccc1)N1CCCC1=O (racemic) [Example 56]
3,5.05,N#Cc1ccc(O[C@H](c2ccc(OC(F)(F)F)cc2)[C@H](c2ccc(F)cc2)N2CCCC2=O)cc1 (racemic) [Example 108]
4,6.30,"O=C1CCCN1[C@@H](c1cccc2cccnc12)[C@H](OCC1CC1)c1ccc(F)cc1 (racemic) [Example 3, 1-[(1R′,2S′)-2-Cyclopropylmethoxy-2-(4-fluorophenyl)-1-quinolin-8-ylethyl]-pyrrolidin-2-one]"
5,6.80,CCCO[C@H](c1ccccc1)[C@H](c1ccccc1)N1CCCC1=O [Example 15]
6,5.96,N#Cc1ccc(O[C@H](c2ccc(F)cc2)[C@H](c2cccc3cccnc23)N2CCCC2=O)cc1 (racemic) [Example 55]
7,6.00,O=C1CCCN1[C@@H](c1ccccc1)[C@H](OCc1ccc(Cl)cc1)c1ccc(Cl)cc1 (racemic) [Example 57]
8,5.34,N#Cc1ccc(OC(c2ccnc3ccccc23)C(c2ccc(F)cc2)N2CCCC2=O)cc1 (stereo not drawn) [Example 105]
9,6.10,O=C1CCCN1[C@@H](c1cccc2cccnc12)[C@H](OCC1CC1)c1cccnc1 (racemic) [Example 119]
10,5.25,O=C1CCCN1[C@@H](c1ccc(F)cc1)[C@H](OCc1ccc(Cl)cc1)c1ccc(F)c(F)c1 (racemic) [Example 101]
11,5.70,O=S1(=O)CCCN1[C@H](c1ccccc1)[C@@H](OCC1CC1)c1ccccc1 [Example 52]
12,5.80,N#Cc1ccc(CO[C@H](c2ccc(F)c(F)c2)[C@H](c2ccc(F)cc2)N2CCCC2=O)cc1 (racemic) [Example 69]
13,5.17,O=C1CCCN1[C@@H](c1ccccn1)[C@H](OCCF)c1ccccc1 (racemic) [Example 104]
14,5.06,O=C1CCCN1C(c1ccc(F)cc1)C(OCCCC(F)(F)F)c1cccc2cccnc12 (stereo not drawn) [Example 111]
15,6.15,O=C1CCCN1[C@@H](c1ccc(F)cc1)[C@H](OCC1CC1)c1cc(F)cc(F)c1 (racemic) [Example 37]
16,6.00,COc1ccc([C@@H](OCC2CC2)[C@H](c2ccc(F)cc2)N2CCCC2=O)cc1 (racemic) [Example 73]
17,5.85,O=C1CCCN1[C@@H](c1ccc(F)cc1)[C@H](OCC1CC1)c1ccc(C(F)(F)F)cc1 (racemic) [Example 80]
18,5.47,CO[C@H](c1ccc(F)cc1)[C@H](c1ccc(F)cc1)N1CCCC1=O (racemic) [Example 79]
19,6.00,N#Cc1ccc(O[C@H](c2ccc(Cl)cc2)[C@H](c2ccccc2)N2CCCC2=O)cc1 (racemic) [Example 45]
20,~5.00,N#Cc1ccc(OC(c2ccc(C#N)cc2)C(c2ccc(F)cc2)N2CCCC2=O)cc1 (stereo not drawn) [Example 113]

row,pIC50,Structure (SMILES)
1,6.35,CCCO[C@@H](c1ccc(F)cc1)[C@H](c1ccccc1)N1CCCC1=O (racemic) [Example 25]
2,6.22,CCCO[C@H](c1ccc(C#N)cc1)[C@H](c1ccc(F)cc1)N1CCCC1=O (racemic) [Example 36]
3,6.05,CCCO[C@@H](c1ccc(Cl)cc1)[C@H](c1ccccc1)N1CCCC1=O (racemic) [Example 28]
4,6.05,O=C1CCCN1[C@@H](c1ccccc1)[C@H](OCCCC(F)(F)F)c1ccc(F)cc1 (racemic) [Example 51]
5,5.89,"O=C1CCCN1[C@@H](c1ccccn1)[C@H](OCC1CC1)c1ccccc1 (racemic) [Example 5, 1-[(1R′,2S′)-2-Cyclopropylmethoxy-2-phenyl-1-pyridin-2-ylethyl]pyrrolidin-2-one]"
6,5.74,CS(=O)(=O)c1ccc([C@@H](OCC2CC2)[C@H](c2ccc(F)cc2)N2CCCC2=O)cc1 (racemic) [Example 61]
7,6.22,O=C1CCCN1[C@@H](c1ccc(F)cc1)[C@H](OCC1CC1)c1ccc(F)c(F)c1 (racemic) [Example 42]
8,6.40,CCCO[C@@H](c1ccccc1)[C@@H](c1ccccc1)N1CCCC1=O [Example 18]
9,6.48,O=C1CCCCN1[C@@H](c1ccc(F)cc1)[C@H](OCC1CC1)c1ccc(F)c(F)c1 (racemic) [Example 14]
10,5.42,N#Cc1ccc(O[C@H](c2ccc(F)cc2)[C@H](c2ccc(F)cc2)N2CCCC2=O)cc1 (racemic) [Example 92]
11,5.62,CC#CCO[C@H](c1ccc(F)c(F)c1)[C@H](c1ccc(F)cc1)N1CCCC1=O (racemic) [Example 62]
12,5.02,N#Cc1ccc(O[C@@H](c2ccnc3ccccc23)[C@H](c2ccc(F)cc2)N2CCCC2=O)cc1 (racemic) [Example 109]
13,~5.00,O=C1CCCN1[C@@H](c1ccc(F)cc1)[C@H](Oc1ccccn1)c1ccc(F)c(F)c1 (racemic) [Example 114]
14,6.10,O=C1CCCCN1[C@@H](c1ccc(F)cc1)[C@H](OCCCC(F)(F)F)c1cccnc1 (racemic) [Example 118]
15,6.22,O=C1CCCN1[C@H](c1ccc(F)cc1)[C@H](OCC1CC1)c1ccc(F)cc1 (racemic) [Example 27]
16,6.30,O=C1CCCN1[C@@H](c1ccccc1)[C@H](OCCCC(F)(F)F)c1ccc(Cl)cc1 (racemic) [Example 22]
17,5.08,N#Cc1ccc(O[C@H](c2cc(F)cc(F)c2)[C@H](c2ccc(F)cc2)N2CCCC2=O)cc1 (racemic) [Example 106]
18,5.39,O=C1CCCCN1[C@@H](c1ccc(F)cc1)[C@H](OCC1CC1)c1cccc2cccnc12 (racemic) [Example 93]
19,6.19,CCCOC(c1ccc(OC)cc1)C(c1ccccc1)N1CCCC1=O (stereo not drawn) [Example 23]

row,Structure (SMILES),pIC50
1,O=C1CCCCN1[C@H](c1ccccc1)[C@@H](OCC1CC1)c1ccccc1 [Example 74],5.85
2,CO[C@H](c1ccccc1)[C@H](c1ccccc1)N1CCCC1=O [Example 85],5.44
3,CO[C@@H](c1ccccc1)[C@H](c1ccccc1)N1CCCC1=O (racemic) [Example 82],5.43
4,"O=C1CCCN1[C@@H](c1ccc(F)cc1)[C@H](OCCCC(F)(F)F)c1cccnc1 (racemic) [Example 2, 1-[(1R′,2S′)-1-(4-Fluorophenyl)-2-pyridin-3-yl-2-(4,4,4-trifluorobutoxy)-ethyl]pyrrolidin-2-one]",5.22
